Data as given in patent US10233182B2, “Substituted spirocyclic inhibitors of autotaxin” (X-Rx, Inc., priority 2014, dated 2019).

Target: Autotaxin (Homo sapiens (Human), UniProt Q13822)
Experiment: Autotaxin LPC Cascade Assay
Format: biochemical
Conditions: Autotaxin 5 nM, LPC 100 μM, choline oxidase/HRP/Ampliflu Red fluorescence read-out, 2% DMSO, RT; read-out: IC50 ATX Activity
Method: Autotaxin LPC Cascade Assay:
HA130 and Test Compounds:
Prepare a 1 mM stock of HA130 and a 3 mM stock of each compound in 100% DMSO. Perform a 1:3 serial dilution in DMSO (transfer 5 l of compound to 10 l of DMSO). Add 240 l of buffer to generate a top working concentration of 40 µM (HA130) and 120 µM (test compound) in 4% DMSO.
Ampliflu Red—Prepare a stock of 5 mM from 100 mM in 100% DMSO. Further dilute to a working concentration of 400 μM in buffer (8% DMSO).
Together with compound this yields a 2% DMSO final concentration.
Choline Oxidase/HRP—0.8 U/mL CO and 8 U/mL HRP.
Incubate for 10 mins at RT. Add 5 µl of LPC and incubate for 1 hr on the plate shaker. Prepare the CO/HRP and AR immediately prior to use. Add 2.5 l of CO/HRP and follow with 2.5 l AR. Note order of addition, CO/HRP mix before AR. Read fluorescence intensity (ex/em: 530/590 nm) kinetically for 30 min at RT on the Tecan M1000.

Compound | IC50
CC(C)[C@@H](NC(=O)c1cc(C(F)(F)F)ccc1F)C(=O)N1CCC2(CC1)C(=O)N(C)CN2c1ccc(C(N)=O)cc1 [Example 157, (R)—N-(1-(1-(4-Carbamoylphenyl)-3-methyl-4-oxo-1,3,8-triazaspiro[4.5]decan-8-yl)-3-methyl-1-oxobutan-2-yl)-2-fluoro-5-(trifluoromethyl)benzamide] | < 500 nM
CC(C)[C@@H](NC(=O)c1cc(C(F)(F)F)ccc1F)C(=O)N1CCC2(CC1)C(=O)N(C)C(=O)N2Cc1ccc(C#N)cc1 [Example 88, (R)—N-(1-(1-(4-Cyanobenzyl)-3-methyl-2,4-dioxo-1,3,8-triazaspiro[4.5]decan-8-yl)-3-methyl-1-oxobutan-2-yl)-2-fluoro-5-(trifluoromethyl)benzamide] | < 500 nM
CN1C(=O)N(c2ccc3[nH]ncc3c2)C2(CCN(C(=O)C3(NC(=O)c4cc(C(F)(F)F)ccc4F)CC3)CC2)C1=O [Example 71, N-(1-(1-(1H-Indazol-5-yl)-3-methyl-2,4-dioxo-1,3,8-triazaspiro[4.5]decane-8-carbonyl)cyclopropyl)-2-fluoro-5-(trifluoromethyl)benzamide] | ≥ 1000 nM
COC1CC(CN2C(=O)N(C)C(=O)C23CCN(C(=O)[C@H](NC(=O)c2cc(C(F)(F)F)ccc2F)C(C)C)CC3)C1 (stereo partly drawn) [Example 219, (R)-2-Fluoro-N-(1-(1-((3-methoxycyclobutyl)methyl)-3-methyl-2,4-dioxo-1,3,8-triazaspiro[4.5]decan-8-yl)-3-methyl-1-oxobutan-2-yl)-5-(trifluoromethyl)benzamide] | ≥ 1000 nM
CCc1ccc(F)c(C(=O)N[C@@H](C(=O)N2CCC3(CC2)C(=O)N(C)C(=O)N3c2ccc3[nH]c(=O)oc3c2)C(C)C)c1 [Example 31, (R)-5-Ethyl-2-fluoro-N-(3-methyl-1-(3-methyl-2,4-dioxo-1-(2-oxo-2,3-dihydrobenzo[d]oxazol-6-yl)-1,3,8-triazaspiro[4.5]decan-8-yl)-1-oxobutan-2-yl)benzamide] | < 500 nM
CCc1ccc(F)c(C(=O)N[C@@H](C(=O)N2CCC3(CC2)C(=O)N(C)CN3c2ccccc2)[C@H](C)OC)c1 [Example 133, 5-Ethyl-2-fluoro-N-((2R,3S)-3-methoxy-1-(3-methyl-4-oxo-1-phenyl-1,3,8-triazaspiro[4.5]decane-8-yl)-1-oxobutan-2-yl)benzamide] | < 500 nM
Cc1nc2ccc(CN3C(=O)N(C)C(=O)C34CCN(C(=O)[C@H](NC(=O)c3cc(C(F)(F)F)ccc3F)C(C)C)CC4)cc2o1 [Example 118, (R)-2-Fluoro-N-(3-methyl-1-(3-methyl-1-((2-methylbenzo[d]oxazol-6-yl)methyl)-2,4-dioxo-1,3,8-triazaspiro[4.5]decan-8-yl)-1-oxobutan-2-yl)-5-(trifluoromethyl)benzamide] | < 500 nM
Cc1csc(CN2C(=O)N(C)C(=O)C23CCN(C(=O)[C@H](NC(=O)c2cc(C(F)(F)F)ccc2F)C(C)C)CC3)n1 [Example 117, (R)-2-Fluoro-N-(3-methyl-1-(3-methyl-1-((4-methylthiazol-2-yl)methyl)-2,4-dioxo-1,3,8-triazaspiro[4.5]decan-8-yl)-1-oxobutan-2-yl)-5-(trifluoromethyl)benzamide] | ≥ 1000 nM
CC(C)[C@@H](NC(=O)c1cc(C(F)(F)F)ccc1F)C(=O)N1CCC2(CC1)C(=O)N(C)C(=O)N2c1ccc2oc(=O)n(C)c2c1 [Example 11, (R)-2-Fluoro-N-(3-methyl-1-(3-methyl-1-(3-methyl-2-oxo-2,3-dihydrobenzo[d]oxazol-5-yl)-2,4-dioxo-1,3,8-triazaspiro[4.5]decan-8-yl)-1-oxobutan-2-yl)-5-(trifluoromethyl)benzamide] | ≥ 1000 nM
CC(C)[C@@H](NC(=O)c1nc(C(F)(F)F)cs1)C(=O)N1CCC2(CC1)C(=O)N(C)C(=O)N2c1ccc2[nH]ncc2c1 [Example 235, (R)—N-(1-(1-(1H-Indazol-5-yl)-3-methyl-2,4-dioxo-1,3,8-triazaspiro[4.5]decan-8-yl)-3-methyl-1-oxobutan-2-yl)-4-(trifluoromethyl)thiazole-2-carboxamide] | ≥ 1000 nM
CC(C)[C@@H](NC(=O)c1cc(C(F)(F)F)ccc1F)C(=O)N1CCC2(CC1)C(=O)N(C)C(=O)N2[C@H](C)c1ccccc1 [Example 80, 2-Fluoro-N—((R)-3-methyl-1-(3-methyl-2,4-dioxo-1-((R)-1-phenylethyl)-1,3,8-triazaspiro[4.5]decan-8-yl)-1-oxobutan-2-yl)-5-(trifluoromethyl)benzamide] | ≥ 1000 nM
COc1ccc(F)c(CN2C(=O)N(C)C(=O)C23CCN(C(=O)[C@H](NC(=O)c2cc(C(F)(F)F)ccc2F)C(C)C)CC3)c1 [Example 107, (R)-2-Fluoro-N-(1-(1-(2-fluoro-5-methoxybenzyl)-3-methyl-2,4-dioxo-1,3,8-triazaspiro[4.5]decan-8-yl)-3-methyl-1-oxobutan-2-yl)-5-(trifluoromethyl)benzamide] | < 500 nM
CC(C)[C@@H](NC(=O)c1cc(C(F)(F)F)ccc1F)C(=O)N1CCC2(CC1)C(=O)N(C)C(=O)N2c1ccccn1 [Example 188, (R)-2-Fluoro-N-(3-methyl-1-(3-methyl-2,4-dioxo-1-(pyridin-2-yl)-1,3,8-triaza-spiro[4.5]decan-8-yl)-1-oxobutan-2-yl)-5-(trifluoromethyl)benzamide] | 500 to 1000 nM
CC(C)[C@@H](NC(=O)c1cc(C(F)(F)F)ccc1F)C(=O)N1CCC2(CC1)C(=O)N(C)CN2c1ccc(C(=O)O)c(Cl)c1 [Example 154, (R)-2-Chloro-4-(8-(2-(2-fluoro-5-(trifluoromethyl)benzamido)-3-methylbutanoyl)-3-methyl-4-oxo-1,3,8-triazaspiro[4.5]decan-1-yl)benzoic Acid] | < 500 nM
CC(C)[C@@H](NC(=O)c1cc(C(F)(F)F)ccc1F)C(=O)N1CCC2(CC1)C(=O)N(C)C(=O)N2c1ccc(OCC#N)cc1 [Example 82, (R)—N-(1-(1-(4-(cyanomethoxy)phenyl)-3-methyl-2,4-dioxo-1,3,8-triazaspiro[4.5]decan-8-yl)-3-methyl-1-oxobutan-2-yl)-2-fluoro-5-(trifluoromethyl)benzamide] | 500 to 1000 nM
CC(C)[C@@H](NC(=O)c1cc(C(F)(F)F)ccc1F)C(=O)N1CCC2(CC1)C(=O)N(C)C(=O)N2c1ccncc1 [Example 239, (R)-2-Fluoro-N-(3-methyl-1-(3-methyl-2,4-dioxo-1-(pyridin-4-yl)-1,3,8-triazaspiro[4.5]decan-8-yl)-1-oxobutan-2-yl)-5-(trifluoromethyl)benzamide] | < 500 nM
CCc1cccc(C(=O)N[C@@H](C(=O)N2CCC3(CC2)C(=O)N(C)CN3c2ccccc2)[C@H](C)OC)c1 [Example 135, 3-Ethyl-N-((2R,3S)-3-methoxy-1-(3-methyl-4-oxo-1-phenyl-1,3,8-triazaspiro[4.5]decan-8-yl)-1-oxobutan-2-yl)benzamide] | < 500 nM
CCc1ccc(F)c(C(=O)N[C@@H](C(=O)N2CCC3(CC2)C(=O)N(C)CN3c2ccccc2)C(C)C)c1 [Example 144, (R)-5-Ethyl-2-fluoro-N-(3-methyl-1-(3-methyl-4-oxo-1-phenyl-1,3,8-triazaspiro[4.5]decan-8-yl)-1-oxobutan-2-yl)benzamide] | < 500 nM
Cc1cccc(C(=O)N[C@@H](C(=O)N2CCC3(CC2)C(=O)N(C)CN3c2ccc(B(O)O)cc2)C(C)C)c1F [Example 147, (R)-4-(8-(2-(2-Fluoro-3-methylbenzamido)-3-methylbutanoyl)-3-methyl-4-oxo-1,3,8-triazaspiro[4.5]decan-1-yl)phenylboronic Acid] | < 500 nM
Cc1cccc(C(=O)N[C@@H](C(=O)N2CCC3(CC2)C(=O)N(C)CN3c2ccc(Br)cc2)C(C)C)c1 [Example 199, (R)—N-(1-(1-(4-Bromophenyl)-3-methyl-4-oxo-1,3,8-triazaspiro[4.5]decan-8-yl)-3-methyl-1-oxobutan-2-yl)-3-methylbenzamide] | < 500 nM
CCc1cc(F)cc(C(=O)N[C@@H](C(=O)N2CCC3(CC2)C(=O)N(C)CN3c2ccccc2)[C@H](C)OC)c1 [Example 136, 3-Ethyl-5-fluoro-N-((2R,3S)-3-methoxy-1-(3-methyl-4-oxo-1-phenyl-1,3,8-triazaspiro[4.5]decan-8-yl)-1-oxobutan-2-yl)benzamide] | < 500 nM
Cc1nc2cc(CN3C(=O)N(C)C(=O)C34CCN(C(=O)[C@H](NC(=O)c3cc(C(F)(F)F)ccc3F)C(C)C)CC4)ccc2o1 [Example 116, (R)-2-Fluoro-N-(3-methyl-1-(3-methyl-1-((2-methylbenzo[d]oxazol-5-yl)methyl)-2,4-dioxo-1,3,8-triazaspiro[4.5]decan-8-yl)-1-oxobutan-2-yl)-5-(trifluoromethyl)benzamide] | < 500 nM
CC(C)[C@H](C(=O)N1CCC2(CC1)C(=O)N(C)C(=O)N2c1ccc2[nH]ncc2c1)N(C)C(=O)c1cc(C(F)(F)F)ccc1F [Example 236, (R)—N-(1-(1-(1H-Indazol-5-yl)-3-methyl-2,4-dioxo-1,3,8-triazaspiro[4.5]decan-8-yl)-3-methyl-1-oxobutan-2-yl)-2-fluoro-N-methyl-5-(trifluoromethyl)benzamide] | ≥ 1000 nM
Cc1cccc(C(=O)N[C@H](C(=O)N2CCC3(CC2)C(=O)N(C)CN3c2ccccc2)C2CCOCC2)c1 [Example 130, (S)-3-Methyl-N-(2-(3-methyl-4-oxo-1-phenyl-1,3,8-triazaspiro[4.5]decan-8-yl)-2-oxo-1-(tetrahydro-2H-pyran-4-yl)ethyl)benzamide] | ≥ 1000 nM
